Measured values taken from US7579356B2, “Thia-tetraazaacenaphthylene kinase inhibitors” (Janssen Pharmaceutica NV, priority 2005, dated 2009).
pIC50: −log10 of the molar value.

Legend:
Format in all cases: biochemical
EGFR = molecular target: T1, EGFR (Homo sapiens, UniProt P00533); experiment: EGFR Kinase Assay; conditions: for pIC50: GST-EGFR, ATP 5 μM; for inhibition at 2 µM: test concentration of 2 μM, compounds without an IC50, read-out: EGFR inhibition in percent
T1 construct: The intracellular portion of EGFR started at nucleotide 2189 (corresponding to amino acid 667) and ended at the termination codon; made in house; host or cells: Sf9 insect cells (baculovirus)
T1 sequence (P00533 669-1210 limits assumed): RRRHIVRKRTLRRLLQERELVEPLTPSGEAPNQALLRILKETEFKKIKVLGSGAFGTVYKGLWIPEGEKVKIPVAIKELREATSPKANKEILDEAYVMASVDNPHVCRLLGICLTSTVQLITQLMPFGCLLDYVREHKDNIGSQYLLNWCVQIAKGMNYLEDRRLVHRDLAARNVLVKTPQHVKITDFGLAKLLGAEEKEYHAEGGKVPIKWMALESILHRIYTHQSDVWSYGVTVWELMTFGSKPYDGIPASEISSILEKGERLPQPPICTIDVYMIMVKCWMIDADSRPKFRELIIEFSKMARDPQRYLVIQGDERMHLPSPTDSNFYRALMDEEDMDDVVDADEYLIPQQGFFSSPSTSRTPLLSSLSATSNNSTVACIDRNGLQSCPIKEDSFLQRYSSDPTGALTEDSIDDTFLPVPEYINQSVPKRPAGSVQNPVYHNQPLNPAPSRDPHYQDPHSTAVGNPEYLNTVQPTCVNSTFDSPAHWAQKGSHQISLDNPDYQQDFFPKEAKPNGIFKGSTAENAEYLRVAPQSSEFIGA
How it was run: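 GST-fused human EGFR intracellular domain (from aa 667), Sf9-expressed, phosphorylated biotinylated polyGluTyr with 5 μM ATP plus γ-33P ATP in Tris pH 8.0, MgCl2, vanadate, 1 mM DTT, 1 h at 30 °C. Streptavidin Flashplate scintillation read; triplicate 16-point half-log series from 200 uM; IC50 from % inhibition vs log concentration, else % inhibition at 2 μM.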

c-Src kinase (human) = molecular target: T2, c-Src kinase (human) (Homo sapiens, UniProt P12931); experiment: c-Src Kinase Assay; conditions: test concentration of 2 μM; multiple values are separate assay results
T2 construct: purchased Upstate Biotechnology, Lake Placid, N.Y
T2 sequence (P12931 whole entry): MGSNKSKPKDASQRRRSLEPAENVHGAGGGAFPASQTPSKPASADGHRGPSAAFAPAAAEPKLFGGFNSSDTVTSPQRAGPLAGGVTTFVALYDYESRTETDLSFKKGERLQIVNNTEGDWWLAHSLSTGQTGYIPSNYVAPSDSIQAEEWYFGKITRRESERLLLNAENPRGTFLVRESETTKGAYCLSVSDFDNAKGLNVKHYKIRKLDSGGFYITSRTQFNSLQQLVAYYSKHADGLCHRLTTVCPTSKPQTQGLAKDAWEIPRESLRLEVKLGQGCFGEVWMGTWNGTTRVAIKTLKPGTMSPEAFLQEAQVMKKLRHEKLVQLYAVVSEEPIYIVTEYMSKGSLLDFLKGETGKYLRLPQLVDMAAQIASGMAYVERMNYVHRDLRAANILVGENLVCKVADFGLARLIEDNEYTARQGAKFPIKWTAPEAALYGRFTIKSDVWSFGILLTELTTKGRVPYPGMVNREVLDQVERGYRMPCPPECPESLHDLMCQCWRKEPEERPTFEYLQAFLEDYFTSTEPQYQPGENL
How it was run: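 Inhibition was read as 33P incorporation, counted on P30 filtermats, after a 40 min, 30° C reaction. Human c-Src acted on 100 μM Cdc2 peptide with 5 μM ATP (final), pH 7.0 MOPS/MgCl2. Values are percent inhibition at 2 μM compound, or IC50 where determined.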

Lyn kinase (human) = molecular target: T3, Lyn kinase (human) (Homo sapiens, UniProt P07948); experiment: Lyn Kinase Assay; conditions: test concentration of 2 μM
T3 construct: purchased Upstate Biotechnology, Lake Placid, N.Y
T3 sequence (P07948 whole entry): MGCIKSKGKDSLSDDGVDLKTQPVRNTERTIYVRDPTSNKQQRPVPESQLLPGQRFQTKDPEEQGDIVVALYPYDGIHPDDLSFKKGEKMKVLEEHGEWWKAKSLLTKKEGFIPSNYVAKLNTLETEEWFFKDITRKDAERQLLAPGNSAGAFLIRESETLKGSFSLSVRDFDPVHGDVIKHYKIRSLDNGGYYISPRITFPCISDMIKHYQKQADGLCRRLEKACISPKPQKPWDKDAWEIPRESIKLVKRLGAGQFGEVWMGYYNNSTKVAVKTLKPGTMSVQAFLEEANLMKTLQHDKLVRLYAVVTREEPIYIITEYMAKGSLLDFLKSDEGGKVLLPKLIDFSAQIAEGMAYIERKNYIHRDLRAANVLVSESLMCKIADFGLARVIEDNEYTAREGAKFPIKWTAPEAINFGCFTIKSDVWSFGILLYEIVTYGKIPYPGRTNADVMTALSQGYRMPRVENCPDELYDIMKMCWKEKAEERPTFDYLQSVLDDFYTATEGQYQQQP
Method: A mixture of a 10× kinase buffer (500 mM MOPS at pH 7.5, 1 mM EGTA, 1 mM Sodium Vanadate, 1% β-mercaptoethanol and 100 mM Magnesium Acetate), ATP (5 μM final from a 10 mM stock), polyGluTyr (0.1 mg/mL final from a 1 mg/mL stock), γ-^33P ATP (10 μCl/μL stock) and water (for a total of 20 μL/well) was added to each well of a Streptavidin Flashplate.
Test compound in 100% DMSO (0.5 μL) was added to the appropriate wells. Diluted Lyn kinase (human)(Accession Number EMBL M16038) (Upstate Biotechnology, Lake Placid, N.Y.) (diluted in a buffer consisting of 50 mM Tris at pH 7.5, 0.1 mM EGTA, Sodium Vanadate (0.1 mM), β-mercaptoethanol (0.1%) and 1 mg/mL bovine serum albumin) (2.5 μL) was added to the wells to initiate the reactions.
The reaction plates were incubated at 30° C. for 40 min. The reaction was terminated by the addition of a 3% phosphoric acid solution (5 μL). The reaction product (10 μL) was spotted onto a P30 filtermat and washed for 5 minutes in phosphoric acid (75 mM). The wash sequence was repeated two more times, followed with one final wash in methanol. The plates were then dried, sealed and read on the TopCount scintillation counter after adding 30 μL scintillation fluid.
The Lyn inhibition values were derived according to the procedure described in Example 164 and are shown as percent in Table 3 at a test concentration of 2 μM. For those compounds with an IC50, the IC50 value in μM is shown in parentheses. For compounds with multiple test values, each value represents a separate assay result.

HER-2 = molecular target: T4, HER-2 (Homo sapiens, UniProt P04626); experiment: HER-2 Kinase Assay; conditions: for pIC50: value in parentheses; for inhibition at 1 µM: test concentration of 1 μM
T4 construct: His6 with thrombin site (N); purchased Proqinase (Freiburg, Germany)
T4 sequence (P04626 679-1255): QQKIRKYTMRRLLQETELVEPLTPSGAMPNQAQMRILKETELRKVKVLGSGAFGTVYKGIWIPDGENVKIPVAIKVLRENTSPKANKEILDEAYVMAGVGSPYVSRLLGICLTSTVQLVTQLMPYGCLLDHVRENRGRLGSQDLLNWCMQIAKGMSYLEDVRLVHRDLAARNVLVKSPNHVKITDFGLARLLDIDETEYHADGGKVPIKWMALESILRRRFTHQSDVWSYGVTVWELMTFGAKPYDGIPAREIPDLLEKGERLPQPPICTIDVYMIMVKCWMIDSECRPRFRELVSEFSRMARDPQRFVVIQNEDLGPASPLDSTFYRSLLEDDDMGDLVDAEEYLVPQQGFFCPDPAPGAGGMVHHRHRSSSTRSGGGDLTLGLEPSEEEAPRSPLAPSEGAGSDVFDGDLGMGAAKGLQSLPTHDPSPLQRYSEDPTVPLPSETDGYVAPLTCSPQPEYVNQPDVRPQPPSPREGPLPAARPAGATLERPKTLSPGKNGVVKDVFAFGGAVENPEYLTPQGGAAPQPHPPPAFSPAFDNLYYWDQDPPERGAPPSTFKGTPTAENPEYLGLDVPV
How it was run: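 GST/HIS6-tagged HER-2 aa 679–1255 kinase with biotinylated polyGluTyr (1.5 ng/μL), 1 μM ATP plus γ-33P-ATP, Mg2+/Mn2+, DTT, Hepes pH 7.5; 1 h at 30 °C. Substrate phosphorylation captured on streptavidin scintillation plates after EDTA/PBS washes; values are % inhibition at 1 μM or IC50.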

| Structure (SMILES) | pIC50 (EGFR) | inhibition at 2 µM (c-Src kinase (human)) [%] | inhibition at 2 µM (Lyn kinase (human)) [%] | pIC50 (HER-2) | inhibition at 2 µM (EGFR) [%] | inhibition at 1 µM (HER-2) [%] |
| --- | --- | --- | --- | --- | --- | --- |
| O=C(NCCCO)c1sc2ncnc3c2c1NC(=O)N3c1ccc(Oc2ccccc2)cc1 [Cpd 106, 4-oxo-5-(4-phenoxy-phenyl)-4,5-dihydro-3H-1-thia-3,5,6,8-tetraaza-acenaphthylene-2-carboxylic acid (3-hydroxy-propyl)-amide] | 7.38 | 30 | 27 | 6.11 |  |  |
| O=C(O)c1sc2ncnc3c2c1NC(=O)N3c1ccc(Oc2ccccc2)c(F)c1 [Cpd 112, 5-(3-fluoro-4-phenoxy-phenyl)-4-oxo-4,5-dihydro-3H-1-thia-3,5,6,8-tetraaza-acenaphthylene-2-carboxylic acid] | 5.99 | -16 | 30 | 5.30 |  |  |
| CN1CCN(Cc2ccc(NC(=O)c3sc4ncnc5c4c3NC(=O)N5c3ccc(Oc4ccccc4)c(F)c3)cc2)CC1 [Cpd 115, 5-(3-fluoro-4-phenoxy-phenyl)-4-oxo-4,5-dihydro-3H-1-thia-3,5,6,8-tetraaza-acenaphthylene-2-carboxylic acid [4-(4-methyl-piperazin-1-ylmethyl)-phenyl]-amide] | 7.38 | -1 | 51.2 | 6.74 |  |  |
| Cc1ccc(Oc2ccc(N3C(=O)Nc4c(C(=O)Nc5ccc(CN6CCOCC6)cc5)sc5ncnc3c45)cc2C)cn1 [Cpd 119, 5-[3-methyl-4-(6-methyl-pyridin-3-yloxy)-phenyl]-4-oxo-4,5-dihydro-3H-1-thia-3,5,6,8-tetraaza-acenaphthylene-2-carboxylic acid (4-morpholin-4-ylmethyl-phenyl)-amide] | 5.74 | -17 | -47 | 5.96 |  |  |
| COc1ccc(N2C(=O)Nc3c(C(=O)Nc4ccc(CCN5CCCCC5)cc4)sc4ncnc2c34)cc1Cl [Cpd 120, 5-(3-chloro-4-methoxy-phenyl)-4-oxo-4,5-dihydro-3H-1-thia-3,5,6,8-tetraaza-acenaphthylene-2-carboxylic acid [4-(2-piperidin-1-yl-ethyl)-phenyl]-amide] | 5.97 | -5 | 0 | 4.93 |  |  |
| COc1ccc(N2C(=O)Nc3c(C(=O)Nc4ccc(CN5CCCCC5)cc4)sc4ncnc2c34)cc1Cl [Cpd 121, 5-(3-chloro-4-methoxy-phenyl)-4-oxo-4,5-dihydro-3H-1-thia-3,5,6,8-tetraaza-acenaphthylene-2-carboxylic acid (4-piperidin-1-ylmethyl-phenyl)-amide] | 6.46 | -1 | -13 | 5.45 |  |  |
| COc1ccc(N2C(=O)Nc3c(C(=O)Nc4ccc(CN5CCOCC5)cc4)sc4ncnc2c34)cc1Cl [Cpd 122, 5-(3-chloro-4-methoxy-phenyl)-4-oxo-4,5-dihydro-3H-1-thia-3,5,6,8-tetraaza-acenaphthylene-2-carboxylic acid (4-morpholin-1-ylmethyl-phenyl)-amide] | 6.65 | -9 | 3 | 5.84 |  |  |
| O=C(Nc1ccc(CN2CCCCC2)cc1)c1sc2ncnc3c2c1NC(=O)N3c1ccc(N2CCOCC2)cc1 [Cpd 124, 5-(4-morpholin-4-yl-phenyl)-4-oxo-4,5-dihydro-3H-1-thia-3,5,6,8-tetraaza-acenaphthylene-2-carboxylic acid (4-piperidin-1-ylmethyl-phenyl)-amide] |  | 30 | 18 | < 4.00 | 9 |  |
| O=C(Nc1ccc(N2CCOCC2)cc1)c1sc2ncnc3c2c1NC(=O)N3c1ccc(N2CCOCC2)cc1 [Cpd 125, 5-(4-morpholin-4-yl-phenyl)-4-oxo-4,5-dihydro-3H-1-thia-3,5,6,8-tetraaza-acenaphthylene-2-carboxylic acid (4-morpholin-4-yl-phenyl)-amide] |  | 5 | 21 | < 4.00 | 20 |  |
| CC(C)(C)OC(=O)N1CCC(NC(=O)c2sc3ncnc4c3c2NC(=O)N4c2ccc(N3CCOCC3)cc2)CC1 [Cpd 126, 4-{[5-(4-morpholin-4-yl-phenyl)-4-oxo-4,5-dihydro-3H-1-thia-3,5,6,8-tetraaza-acenaphthylene-2-carbonyl]-amino}-piperidine-1-carboxylic acid tert-butyl ester] |  | -4 | 19 | < 4.00 | 3 |  |
| O=C(NCc1ccco1)c1sc2ncnc3c2c1NC(=O)N3c1ccc(N2CCOCC2)cc1 [Cpd 127, 5-(4-morpholin-4-yl-phenyl)-4-oxo-4,5-dihydro-3H-1-thia-3,5,6,8-tetraaza-acenaphthylene-2-carboxylic acid (furan-2-ylmethyl)-amide] |  | -2 | 25 | < 4.00 | 0.5 |  |
| Cc1ccc(Oc2ccc(N3C(=O)Nc4c(C(=O)Nc5ccc(CN6CCOCC6)cc5)sc5ncnc3c45)cc2Cl)cn1 [Cpd 129, 5-[3-chloro-4-(6-methyl-pyridin-3-yloxy)-phenyl]-4-oxo-4,5-dihydro-3H-1-thia-3,5,6,8-tetraaza-acenaphthylene-2-carboxylic acid (4-morpholin-4-ylmethyl-phenyl)-amide] | 6.81 | -3 | 10 | 6.29 |  | 63 |
| O=C(Nc1ccccc1)c1sc2ncnc3c2c1NC(=O)N3c1cccc(Br)c1 [Cpd 130, 5-(3-bromo-phenyl)-4-oxo-4,5-dihydro-3H-1-thia-3,5,6,8-tetraaza-acenaphthylene-2-carboxylic acid phenylamide] | 6.72 | -3 | 32 | < 4.00 |  |  |
| O=C(Nc1ccc(CN2CCCCC2)cc1)c1sc2ncnc3c2c1NC(=O)N3c1ccc(Oc2cccc(F)c2)cc1 [Cpd 131, 5-[4-(3-fluoro-phenoxy)-phenyl]-4-oxo-4,5-dihydro-3H-1-thia-3,5,6,8-tetraaza-acenaphthylene-2-carboxylic acid (4-piperidin-1-ylmethyl-phenyl)-amide] | 8.00 | 36 | 41 | 7.08 |  | 91 |
| O=C(Nc1ccc(CCN2CCCCC2)cc1)c1sc2ncnc3c2c1NC(=O)N3c1ccc(Oc2cccc(F)c2)cc1 [Cpd 132, 5-[4-(3-fluoro-phenoxy)-phenyl]-4-oxo-4,5-dihydro-3H-1-thia-3,5,6,8-tetraaza-acenaphthylene-2-carboxylic acid [4-(2-piperidin-1-yl-ethyl)-phenyl]-amide] | 7.82 | 32 | 33 | 6.31 |  | 76 |
| O=C(NCCCO)c1sc2ncnc3c2c1NC(=O)N3c1ccc(Oc2cccc(F)c2)cc1 [Cpd 133, 5-[4-(3-fluoro-phenoxy)-phenyl]-4-oxo-4,5-dihydro-3H-1-thia-3,5,6,8-tetraaza-acenaphthylene-2-carboxylic acid (3-hydroxy-propyl)-amide] | 7.47 | 16 | 20 | < 5.00 |  | 0 |
| O=C(Nc1ccc(CN2CCOCC2)cc1)c1sc2ncnc3c2c1NC(=O)N3c1ccc(Oc2cccc(F)c2)cc1 [Cpd 134, 5-[4-(3-fluoro-phenoxy)-phenyl]-4-oxo-4,5-dihydro-3H-1-thia-3,5,6,8-tetraaza-acenaphthylene-2-carboxylic acid (4-morpholin-4-ylmethyl-phenyl)-amide] | 7.68 | 49 | 48 | 7.06 |  | 35 |
